Test results as given in US20230069886A1, “AROMATIC SULPHONAMIDES DERIVATIVES THAT INHIBITS PDI A3, THEIR SYNTHESIS AND USE” (Uniwersytet Jagiellonski, priority 2020, published 2023).
≈ marks a conversion by molar mass, not a printed value.

Legend:
HT-1080 = test: MTT antiproliferative assay, 48 h, HT-1080; assay type: cell-based, human; details: 48-hour exposition, read-out: Cytotoxicity, IC50, μM HT-1080
Description: Anticancer activity of compounds of invention, PDI A3-inhibitors has been tested in vitro in classical antiproliferative assay in various cancer cells lines. Monolayer tumor cell lines MDA-MB-231 (human mammary breast adenocarcinoma), MCF-7 (human breast adenocarcinoma, estrogen-positive), HT-1080 (human fibrosarcoma) and Caco-2 (human colon adenocarcinoma) were cultured in standard medium DMEM (Dulbecco's modified Eagle's medium) (“Sigma”) supplemented with 10% foetal bovine serum (“Sigma”). About 2000-4000 cells per well (depending on line nature) were placed in 96-well plates and after 24 h compounds were added to the wells. Untreated cells were used as a control. The plates were incubated for 48 h, 37° C., 5% CO2. The number of surviving cells was determined using 3-(4,5-dimethylthiazol-2-yl)-2,5-diphenyltetrazolinium bromide (MTT). MTT-test: after incubating culture medium was removed and 200 μL fresh medium with 20 μL MTT (2 mg/mL in HBSS) was added in each well of the plate. After incubation (3 hr., 37° C., 5% CO2), the medium with MTT was removed and 200 μL DMSO were added at once to each sample. The samples were tested at 540 nm on Thermo Scientific Multiskan EX microplate photometer. The half-maximal inhibitory concentration (IC50) of each compound was calculated using Graph Pad Prism® 3.0.

MDA-MB-231 = test: MTT antiproliferative assay, 72 h, with or without estradiol, MDA-MB-231; assay type: cell-based, human
Description: Anticancer activity of selected compounds of invention, PDI A3-inhibitors has been also tested in vitro in antiproliferative assay in normoxic and hypoxic conditions as well in estrogen-stimulated cancer cells. In the experiment, cells were seeded on 96-well plates (Sarstedt, Germany) in appropriate culture medium at a density of 10^5 cells/mL 24 h before adding the tested compounds. Cells were treated with each compound in four concentrations in the range 0.1-100 μg/mL. […] After 72 h of compound treatment at 37° C., 5% CO2 humid atmosphere and in wo different oxygen level conditions: 21%—normal and <1%—hypoxia. In some experiments the MDA-MB-231 and MCF-7 cells were seeded with or without 200 nM estradiol and after 24 h the tested compounds were added. A previously described sulforhodamine B antiproliferative assay was used with minor modifications (Skehan P et al., 1990). Briefly, cells were fixed with 50 μL/well of 50% (w/v) trichloroacetic acid (Avantor Performance Materials, Gliwice, Poland). After 1 h incubation, plates were washed several times with tap water and 50 μL of 0.4% (w/v) solution of sulforhodamine B (Sigma-Aldrich, Germany) in 1% (v/v) acetic acid (Avantor Performance Materials, Gliwice, Poland) was added to each well. After 30 min incubation at room temperature, unbound dye was washed out with 1% (v/v) acetic acid, whereas bound dye was solubilized with 10 mM unbuffered TRIS (Avantor Performance Materials, Gliwice, Poland) solution. The entire procedure was performed using a BioTek EL-406 washing station (BioTek Instruments, USA). After additional 30 min, absorbance was read using a Biotek Hybrid H4 reader (BioTek Instruments, USA) at 540 nm wavelength. MTT assay was used alternatively for HL-60 cell line and in the experiment in which estrogens are added (specified in the table legend). Absorbance was measured using a Biotek Hybrid H4 reader at 570 nm wavelength for MTT assay.
Compounds at each concentration were tested in triplicate in a single experiment and each experiment was repeated at least three times independently. Results are presented as mean IC50±SD.

arterial thrombosis = test: In vivo models of arterial thrombosis; design: species or system rat or mice; details: FIG. 5
Description: To confirm antithrombotic activity of compounds of invention, inhibitors of PDIA3, pharmacological activity of selected compounds was tested in vivo in the rat or mice model of arterial thrombosis. Wistar rats were anaesthetized with pentobarbital (40 mg/kg, i.p.) and placed in a supine position on a heated (37° C.) operating table. Arterial thrombosis was induced by electrical stimulation of the right common carotid artery, as previously described (Kramkowski et al., 2012). Briefly, the anode, a stainless steel L-shaped wire, was inserted under the artery and connected to a constant current generator. The cathode was attached subcutaneously to the hind limb. The artery was stimulated (1 mA) for 10 min. Fifty-five minutes after the beginning of stimulation, the segment of the common carotid artery containing the formed thrombus was dissected and opened lengthwise, and the thrombus was completely removed and air-dried at room temperature for 24 h. Thrombus was then weighed in a blinded manner. Antithrombotic effects of compounds of invention in mice was analyzed using intravital fluorescence confocal microscopy as described previously (Hayashi T et al., 2008). […] Changes in fluorescence intensity were measured as described previously (Hayashi T et al., 2008, Kramkowski et al., 2002)

[1] = system: MDA-MB-231 cell transmigration across IL-1β-stimulated hLMVECs; test: Transendothelial migration of MDA-MB-231 cells across hLMVEC monolayer; assay type: cell-based, human; details: IL-1β 10 ng/mL (6 hours)-stimulated hLMVECs, 24 h co-culture, FIG. 6
Description: To assess whether compounds of invention, PDI A3-inhibitors are also effective as inhibitors of cancer cell transmigration through endothelium the transmigration assay with MDA-MB-231/lung microvascular endothelium was used as described previously (Stojak et al., 2018). Cell migration was assayed in 24-well, 6.5-mm internal-diameter Transwell plates (8.0 μm pore size; BD Pharmingen). Human lung microvascular endothelial cells (hLMVECs) were seeded into 24-well plates (seeding density 5×10^4 cells/insert) on the upper side of the filter and left to grow to confluence. After confluent monolayer formation, hLMVECs were pre-treated with 10 ng/mL IL-1β for 6 h. Prior to use in transmigration assay, cancer cells were pre-incubated with various concentrations (3, 10, 30, 50, 100 μM) of tested inhibitors of PDIA3, C-3390, C-3399 for 30 min. Then, MDA-MB-231 cells (each 5×10^4 per well) were placed into upper chambers and tested PDI inhibitors at various concentrations (1, 10, 30, 50, 100 μM) were given. Lower chambers were filled with medium containing chemoattractant (20% FBS or 100 ng/mL SDF-1α). After 24 h of co-culture, hLMVEC monolayers and non-migrating cancer cells on the upper surface of the membrane were removed. […] The cell number was determined by measuring the fluorescence using plate reader. […]

COC(=O)C1CN1S(=O)(=O)c1ccc2c(C=O)c(N(C)C)ccc2c1 (stereo not drawn) [Compound C-3390, Methyl 1-[[6-(dimethylamino)-5-formyl-2-naphthyl]sulfonyl]aziridine-2-calboxylate]
IC50 (HT-1080): 7.9 ± 0.9 µM
Sensitivity of MDA-MB-231 line after treatment with estradiol (MDA-MB-231; estradiol (200 nM), Table 4): slightly lower sensitivity
IC50 [μg/ml] MDA-MB-231 normal (MDA-MB-231; not pretreated with estradiol, 72 hours exposition, MTT): 3.2 ± 0.2 µg/mL (≈ 8.83 µM)
IC50 [μg/ml] MDA-MB-231 +estradiol (MDA-MB-231; pretreated with 200 nM estradiol, 72 hours exposition, MTT): 9.4 ± 3.5 µg/mL (≈ 25.9 µM)
Anti-thrombotic effects in vivo (arterial thrombosis): anti-thrombotic effects
Inhibition of MDA-MB-231 cell transmigration [1]: inhibited MDA-MB-231 cell transmigration
